Measured values reported in US6525001B1, “Substituted pyrimidine and pyridine herbicides” (Mid-American Commercialization Corporation, priority 1997, dated 2003).

How the values were obtained:
Type in all cases: in vivo
Parameters in all cases: key: 0 is no effect; 10 is complete control
[1] = system: bedstraw (Galium aparine); experiment: Test B pre-/postemergence; conditions: for Bedstraw plant response rating: Preemergence
Summary of the method: (§1)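 Seeds were planted and sprayed preemergence, while plants at 2 to 18 cm (1- to 4-leaf stage) were sprayed postemergence at the same time, with test chemical in a non-phytotoxic solvent mixture containing surfactant. After twelve to sixteen days in a greenhouse, injury was rated visually against untreated controls on a 0–10 scale.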

[2] = system: blackgrass (Alopecurus myosuroides); experiment: Test B pre-/postemergence; conditions: for Blackgrass plant response rating: Preemergence
Summary of the method: as §1

[3] = system: broadleaf signalgrass (Brachiaria decumbens); experiment: Test B pre-/postemergence; conditions: for B. signalgrass plant response rating: Preemergence
Summary of the method: as §1

[4] = system: cocklebur (Xanthium strumarium); experiment: Test B pre-/postemergence; conditions: for Cocklebur plant response rating: Preemergence
Summary of the method: as §1

corn (Zea mays) = experiment: Test B pre-/postemergence; conditions: for Corn plant response rating: Preemergence
Summary of the method: as §1

[5] = system: crabgrass (Digitaria sanguinalis); experiment: Test B pre-/postemergence; conditions: for Crabgrass plant response rating: Preemergence
Summary of the method: as §1

[6] = system: giant foxtail (Setaria faberii); experiment: Test B pre-/postemergence
Summary of the method: as §1

[7] = system: momingglory (Ipomoea hederacea); experiment: Test B pre-/postemergence
Summary of the method: as §1

[8] = system: pigweed (Amaranthus retroflexus); experiment: Test B pre-/postemergence
Summary of the method: as §1

[9] = system: purple nutsedge (Cyperus rotundus); experiment: Test B pre-/postemergence
Summary of the method: as §1

rape (Brassica napus) = experiment: Test B pre-/postemergence
Summary of the method: as §1

soybean (Glycine max) = experiment: Test B pre-/postemergence
Summary of the method: as §1

[10] = system: sugar beet (Beta vulgaris); experiment: Test B pre-/postemergence
Summary of the method: as §1

[11] = system: velvetleaf (Abutilon theophrasti); experiment: Test B pre-/postemergence
Summary of the method: as §1

[12] = system: wheat (Triticum aestivum); experiment: Test B pre-/postemergence
Summary of the method: as §1

wild oat (Avena fatua) = experiment: Test B pre-/postemergence
Summary of the method: as §1

[13] = system: bamyardgrass (Echinochloa crus-galli); experiment: Test B flood test
Summary of the method: (§2)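 Plants were grown to the 2-leaf stage before treatment with test chemical, then held in a greenhouse for twelve to sixteen days. Injury was visually rated against untreated controls on a 0–10 scale, where 0 is no effect and 10 is complete control.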

[14] = system: duck salad (Heteranthera limosa); experiment: Test B flood test
Summary of the method: as §2

rice (Oryza sativa) = experiment: Test B flood test
Summary of the method: as §2

[15] = system: smallflower flatsedge (Cyperus difformis); experiment: Test B flood test
Summary of the method: as §2

[16] = Rate 250 g/ha, Postemergence (so in the source)
[17] = Rate 62 g/ha, Postemergence (flood test)
[18] = Rate 125 g/ha, Postemergence, flood test
[19] = Rate 250 g/ha, Postemergence (flood test species)
[20] = Rate 125 g/ha, Postemergence section (flood test species)

## Cc1cnc(-c2cccc(C(F)(F)F)c2)nc1Cc1cccc(C#N)c1 [Compound 39]
[1]; Rate 62 g/ha, Postemergence
  Plant response rating, Bedstraw: 3
[1]; Rate 62 g/ha
  Bedstraw plant response rating: 0
[1]; Rate 125 g/ha, Postemergence
  Plant response rating, Bedstraw: 3
[1]; Rate 125 g/ha
  Bedstraw plant response rating: 0
[1]; Rate 250 g/ha, Postemergence
  Plant response rating, Bedstraw: 4
[1]; [16]
  Plant response rating, Bedstraw: 0
[2]; Rate 62 g/ha, Postemergence
  Plant response rating, Blackgrass: 1
[2]; Rate 62 g/ha
  Blackgrass plant response rating: 0
[2]; Rate 125 g/ha, Postemergence
  Plant response rating, Blackgrass: 1
[2]; Rate 125 g/ha
  Blackgrass plant response rating: 0
[2]; Rate 250 g/ha, Postemergence
  Plant response rating, Blackgrass: 1
[2]; [16]
  Plant response rating, Blackgrass: 0
[3]; Rate 62 g/ha, Postemergence
  Plant response rating, B. signalgrass: 1
[3]; Rate 62 g/ha
  B. signalgrass plant response rating: 0
[3]; Rate 125 g/ha, Postemergence
  Plant response rating, B. signalgrass: 1
[3]; Rate 125 g/ha
  B. signalgrass plant response rating: 0
[3]; Rate 250 g/ha, Postemergence
  Plant response rating, B. signalgrass: 1
[3]; Rate 250 g/ha, Postemergence as printed in head r139 (second section for compounds 26-50)
  Plant response rating, B. signalgrass: 0
[4]; Rate 62 g/ha, Postemergence
  Plant response rating, Cocklebur: 2
[4]; Rate 62 g/ha
  Cocklebur plant response rating: 0
[4]; Rate 125 g/ha, Postemergence
  Plant response rating, Cocklebur: 2
[4]; Rate 125 g/ha
  Cocklebur plant response rating: 0
[4]; Rate 250 g/ha, Postemergence
  Plant response rating, Cocklebur: 5
[4]; [16]
  Plant response rating, Cocklebur: 0
Corn (Zea mays); Rate 62 g/ha, Postemergence
  Plant response rating, Corn: 1
Corn (Zea mays); Rate 62 g/ha
  Corn plant response rating: 0
Corn (Zea mays); Rate 125 g/ha, Postemergence
  Plant response rating, Corn: 1
Corn (Zea mays); Rate 125 g/ha
  Corn plant response rating: 0
Corn (Zea mays); Rate 250 g/ha, Postemergence
  Plant response rating, Corn: 1
Corn (Zea mays); [16]
  Plant response rating, Corn: 0
[5]; Rate 62 g/ha, Postemergence
  Plant response rating, Crabgrass: 0
[5]; Rate 62 g/ha
  Crabgrass plant response rating: 0
[5]; Rate 125 g/ha, Postemergence
  Plant response rating, Crabgrass: 0
[5]; Rate 125 g/ha
  Crabgrass plant response rating: 0
[5]; Rate 250 g/ha, Postemergence
  Plant response rating, Crabgrass: 1
[5]; [16]
  Plant response rating, Crabgrass: 0
[6]; Rate 62 g/ha, Postemergence
  Plant response rating, Giant foxtail: 0
[6]; Rate 62 g/ha, Preemergence
  Giant foxtail plant response rating: 0
[6]; Rate 125 g/ha, Postemergence
  Giant foxtail plant response rating: 1
[6]; Rate 125 g/ha, Preemergence
  Giant foxtail plant response rating: 0
[6]; Rate 250 g/ha, Postemergence
  Plant response rating, Giant foxtail: 1
[6]; [16]
  Plant response rating, Giant foxtail: 0
[7]; Rate 62 g/ha, Postemergence
  Plant response rating, Morningglory: 1
[7]; Rate 62 g/ha, Preemergence
  Morningglory plant response rating: 0
[7]; Rate 125 g/ha, Postemergence
  Morningglory plant response rating: 1
[7]; Rate 125 g/ha, Preemergence
  Morningglory plant response rating: 0
[7]; Rate 250 g/ha, Postemergence
  Plant response rating, Morningglory: 1
[7]; [16]
  Plant response rating, Morningglory: 0
[8]; Rate 62 g/ha, Postemergence
  Plant response rating, Redroot pigweed: 2
[8]; Rate 62 g/ha, Preemergence
  Redroot pigweed plant response rating: 0
[8]; Rate 125 g/ha, Postemergence
  Redroot pigweed plant response rating: 2
[8]; Rate 125 g/ha, Preemergence
  Redroot pigweed plant response rating: 0
[8]; Rate 250 g/ha, Postemergence
  Plant response rating, Redroot pigweed: 3
[8]; [16]
  Plant response rating, Redroot pigweed: 0
[9]; Rate 62 g/ha, Postemergence
  Plant response rating, Nutsedge: 0
[9]; Rate 62 g/ha, Preemergence
  Nutsedge plant response rating: 0
[9]; Rate 125 g/ha, Postemergence
  Nutsedge plant response rating: 0
[9]; Rate 125 g/ha, Preemergence
  Nutsedge plant response rating: 0
[9]; Rate 250 g/ha, Postemergence
  Plant response rating, Nutsedge: 0
[9]; [16]
  Plant response rating, Nutsedge: 0
Rape (Brassica napus); Rate 62 g/ha, Postemergence
  Plant response rating, Rape: 1
Rape (Brassica napus); Rate 62 g/ha, Preemergence
  Rape plant response rating: 0
Rape (Brassica napus); Rate 125 g/ha, Postemergence
  Rape plant response rating: 1
Rape (Brassica napus); Rate 125 g/ha, Preemergence
  Rape plant response rating: 0
Rape (Brassica napus); Rate 250 g/ha, Postemergence
  Plant response rating, Rape: 4
Rape (Brassica napus); [16]
  Plant response rating, Rape: 0
Soybean (Glycine max); Rate 62 g/ha, Postemergence
  Plant response rating, Soybean: 1
Soybean (Glycine max); Rate 62 g/ha, Preemergence
  Soybean plant response rating: 0
Soybean (Glycine max); Rate 125 g/ha, Postemergence
  Soybean plant response rating: 1
Soybean (Glycine max); Rate 125 g/ha, Preemergence
  Plant response rating, Soybean: 0
Soybean (Glycine max); Rate 250 g/ha, Postemergence
  Plant response rating, Soybean: 2
Soybean (Glycine max); [16]
  Plant response rating, Soybean: 0
[10]; Rate 62 g/ha, Postemergence
  Plant response rating, Sugarbeets: 7
[10]; Rate 62 g/ha, Preemergence
  Sugarbeets plant response rating: 0
[10]; Rate 125 g/ha, Postemergence
  Sugarbeets plant response rating: 9
[10]; Rate 125 g/ha, Preemergence
  Plant response rating, Sugarbeets: 0
[10]; Rate 250 g/ha, Postemergence
  Plant response rating, Sugarbeets: 10
[10]; [16]
  Plant response rating, Sugarbeets: 0
[11]; Rate 62 g/ha, Postemergence
  Plant response rating, Velvetleaf: 0
[11]; Rate 62 g/ha, Preemergence
  Velvetleaf plant response rating: 0
[11]; Rate 125 g/ha, Postemergence
  Velvetleaf plant response rating: 1
[11]; Rate 125 g/ha, Preemergence
  Plant response rating, Velvetleaf: 0
[11]; Rate 250 g/ha, Postemergence
  Plant response rating, Velvetleaf: 1
[11]; [16]
  Plant response rating, Velvetleaf: 0
[12]; Rate 62 g/ha, Postemergence
  Wheat plant response rating: 0
[12]; Rate 62 g/ha, Preemergence
  Wheat plant response rating: 0
[12]; Rate 125 g/ha, Postemergence
  Wheat plant response rating: 1
[12]; Rate 125 g/ha, Preemergence
  Plant response rating, Wheat: 0
[12]; Rate 250 g/ha, Postemergence
  Plant response rating, Wheat: 1
[12]; [16]
  Plant response rating, Wheat: 0
Wild oat (Avena fatua); Rate 62 g/ha, Postemergence
  Wild oats plant response rating: 1
Wild oat (Avena fatua); Rate 62 g/ha, Preemergence
  Wild oats plant response rating: 0
Wild oat (Avena fatua); Rate 125 g/ha, Postemergence
  Wild oats plant response rating: 1
Wild oat (Avena fatua); Rate 125 g/ha, Preemergence
  Plant response rating, Wild oats: 0
Wild oat (Avena fatua); Rate 250 g/ha, Postemergence
  Plant response rating, Wild oats: 1
Wild oat (Avena fatua); [16]
  Plant response rating, Wild oats: 0
[13]; [17]
  Plant response rating, Barnyardgrass: 0
[13]; [18]
  Plant response rating, Barnyardgrass: 0
[13]; [19]
  Plant response rating, Barnyardgrass: 0
[14]; [17]
  Plant response rating, Ducksalad: 0
[14]; [18]
  Plant response rating, Ducksalad: 0
[14]; [19]
  Plant response rating, Ducksalad: 0
Rice (Oryza sativa); [17]
  Plant response rating, Rice: 0
Rice (Oryza sativa); [20]
  Rice plant response rating: 0
Rice (Oryza sativa); [19]
  Plant response rating, Rice: 0
[15]; [17]
  Plant response rating, S. Flatsedge: 0
[15]; [20]
  S. Flatsedge plant response rating: 2
[15]; [19]
  Plant response rating, S. Flatsedge: 2
